Where two headings read alike, the source gives them in different places.
Columns and labels:
Assay type in all cases: biochemical
MYC = experiment: In vitro transcription-translation (IVTT) assay, MYC reporter; settings: HeLa S3 lysate, 2 hrs at 30° C.
In short: (§1)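 Reporter: mCherry, P2A, then 3×FLAG-target peptide-sfGFP fusion, IRES-initiated; HeLa S3 lysate IVTT; cpd dilutions 30 μM−0.1 μM half-log in 100% DMSO (dilution-plate conc); DNA added last; 2 h, 30° C; PBS quench.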

CCND1 = experiment: In vitro transcription-translation (IVTT) assay, CCND1 reporter; settings: HeLa S3 lysate, sfGFP/mCherry ratio
In short: as §1

MCL-1 = experiment: In vitro transcription-translation (IVTT) assay, MCL-1 reporter; settings: HeLa S3 lysate, sfGFP/mCherry ratio
In short: as §1

CCNTB1 = experiment: In vitro transcription-translation (IVTT) assay, CCNTB1 reporter; settings: HeLa S3 lysate, sfGFP/mCherry ratio
Protocol: In vitro transcription-translation assay setup: Each assay includes a master mix containing lysate and shared components, a 96-well plate containing compound titrations for testing, a 96-well DNA plate with reporter constructs to be tested, 96-well skirted PCR plates, and 96-well flat-bottom, black, fluorescent assay plates. Reaction materials setup: (A) Master mix—15 mL conical tube (3 mL of HeLa S3 Lysate described above; 0.6 mL of ThermoFisher Accessory Proteins (#88882); 1.2 ml of ThermoFisher Reaction Mix (#88882); 0.54 mL of nuclease-free Water); (B) 96-Well Master Mix+Compound Plate (Half-log dilutions (30 μM−0.1 μM) of 4 compounds of interest are prepared in 100% DMSO); 96-Well DNA Plate (Five DNA constructs are plated into single columns within the plate. Row 1 of the column contains nuclease free H2O, all other wells contain 110 ng/μL plasmid DNA). Reactions are started by mixing 155 μL of master mix and 3.5 μL of compound serial dilutions, then 9.1 μL of master mix+compound mixture is aliquoted across 5 96-well plates. Reactions begin with final addition of 2 μL of DNA for a 11.1 μL reaction volume in each well. The entire plate is sealed, and incubated for 2 hrs at 30° C. After 2 hrs, quench the assay using 45 μL of PBS, and transfer 50 μL to a flat-bottom black microplate Quantify the sfGFP and mCherry signals from each well on each plate, taking 3 reads of each plate, and perform data analysis below.
In vitro transcription-translation assay data analysis: Each plate is read three times in channels for both sfGFP and mCherry signals. The average signal across these 3 reads is then calculated for further analysis. Control wells containing no DNA reporter are subtracted from reporter wells in the same column to remove auto-fluorescence of the lysate. Then, the ratio of sfGFP/mCherry is calculated per well, and these ratios are averaged across the triplicate experiments on the same plate. Finally, the ratio of each titration concentration is normalized to the no drug control to create the normalized stalling metric. The error on this measurement is determined by propagating error through the averaging and normalization steps. Values are plotted and fit for IC50 determination for each test sequence and titration of compound.

ALK = experiment: In vitro transcription-translation (IVTT) assay, ALK reporter; settings: HeLa S3 lysate, sfGFP/mCherry ratio, 2 hrs at 30° C.
In short: as §1

KRAS G12D = experiment: In vitro transcription-translation (IVTT) assay, KRAS G12D reporter; settings: HeLa S3 lysate, sfGFP/mCherry ratio, 2 hrs at 30° C.
In short: as §1

[1] = IVTT assay, MYC reporter, normalized sfGFP/mCherry ratio, half-log dilutions 30 μM-0.1 μM
[2] = IVTT assay, read-out: MCL1 IC50

Row | Compound | IC50 (CCND1; IVTT assay) [µM] | IC50 (MCL-1; [2]) [µM] | IC50 (CCNTB1) [µM] | IC50 (MYC; sfGFP/mCherry ratio) [µM] | IC50 (CCND1; 2 hrs at 30° C.) [µM] | IC50 (MCL-1; 2 hrs at 30° C.) [µM] | IC50 (ALK) [µM] | IC50 (KRAS G12D) [µM] | IC50 (MYC; [1]) [µM]
1 | COc1ccc(C[C@H]2NC[C@H](O)[C@H]2OC(=O)NCC[C@@H]2CC(F)(F)CN2)cc1 [V190526, (2R,3S,4S)-4-hydroxy-2-[(4-methoxyphenyl)methyl]pyrrolidin-3-yl N-{2-[(2R)-4,4-difluoropyrrolidin-2-yl]ethyl}carbamate] | > 30 | 10 to 20 | < 10 |  |  |  |  |  | 10 to 20
2 | COc1ccc(C[C@H]2NC[C@H](O)[C@H]2OC(=O)NCCN2CCCS2(=O)=O)cc1 [V191944, (2R,3S,4S)-4-hydroxy-2-[(4-methoxyphenyl)methyl]pyrrolidin-3-yl N-[2-(1,1-dioxo-1lambda6,2-thiazolidin-2-yl)ethyl]carbamate] | 10 to 20 | < 10 | < 10 |  |  |  |  |  | < 10
3 | COc1ccc(C[C@H]2NC[C@H](O)[C@H]2OC(=O)NCCCCCO)cc1 [V187587, (2R,3S,4S)-4-hydroxy-2-[(4-methoxyphenyl)methyl]pyrrolidin-3-yl N-(5-hydroxypentyl)carbamate] |  |  |  | < 10 | < 10 | < 10 | < 10 | < 10 | 
4 | COc1ccc(C[C@H]2NC[C@H](O)[C@H]2OC(=O)NCCCN)cc1 [V187591] |  |  |  | < 10 | < 10 | < 10 | < 10 | < 10 | 
5 | COc1ccc(C[C@H]2NC[C@H](O)[C@H]2OC(=O)NCCCCO)cc1 [V187586, (2R,3S,4S)-4-hydroxy-2-[(4-methoxyphenyl)methyl]pyrrolidin-3-yl N-(4-hydroxybutyl)carbamate] |  |  |  |  | < 10 | < 10 | < 10 | < 10 | 
6 | COc1ccc(C[C@H]2NC[C@H](O)[C@H]2OC(=O)NCCCCCn2ccnc2)cc1 [V187636, (2R,3S,4S)-4-hydroxy-2-[(4-methoxyphenyl)methyl]pyrrolidin-3-yl N-[5-(imidazol-1-yl)pentyl]carbamate; trifluoroacetic acid] |  |  |  | < 10 |  | < 10 | < 10 | < 10 | 
7 | COc1ccc(C[C@H]2NC[C@H](O)[C@H]2OC(=O)NCCc2nc3ccccc3[nH]2)cc1 [V187820, (2R,3S,4S)-4-hydroxy-2-[(4-methoxyphenyl)methyl]pyrrolidin-3-yl N-[2-(1H-1,3-benzodiazol-2-yl)ethyl]carbamate] |  |  |  | 10 to 20 | 20 to 30 |  | < 10 | > 30 | 
8 | COC1CCC(CC2NCC(O)C2OC(O)NCCOCC2CNNN2)CC1 (stereo not shown) [V187723, 4-[hydroxy({[2-(1,2,3-triazolidin-4-ylmethoxy)ethyl]amino})methoxy]-5-[(4-methoxycyclohexyl)methyl]pyrrolidin-3-ol; trifluoroacetic acid] |  |  |  | 10 to 20 | 20 to 30 |  | < 10 | > 30 | 
9 | COc1ccc(C[C@H]2NC[C@H](O)[C@H]2OC(=O)NCc2cocn2)cc1 [V187767, (2R,3S,4S)-4-hydroxy-2-[(4-methoxyphenyl)methyl]pyrrolidin-3-yl N-(1,3-oxazol-4-ylmethyl)carbamate] |  |  |  | < 10 | < 10 | < 10 | < 10 | < 10 | 
10 | COc1ccc(C[C@H]2NC[C@H](O)[C@H]2OC(=O)NCCc2nc3ccc(Cl)cc3[nH]2)cc1 [V187821, (2R,3S,4S)-4-hydroxy-2-[(4-methoxyphenyl)methyl]pyrrolidin-3-yl N-[2-(5-chloro-3H-1,3-benzodiazol-2-yl)ethyl]carbamate] |  |  |  | 10 to 20 | > 30 |  | < 10 | > 30 | 
11 | COc1ccc(C[C@H]2NC[C@H](O)[C@H]2OC(=O)NCCc2ncc[nH]2)cc1 [V187816, (2R,3S,4S)-4-hydroxy-2-[(4-methoxyphenyl)methyl]pyrrolidin-3-yl N-[2-(1H-imidazol-2-yl)ethyl]carbamate] |  |  |  | 20 to 30 | > 30 |  | < 10 | > 30 | 
12 | COc1ccc(C[C@H]2NC[C@H](O)[C@H]2OC(=O)NCCc2ccon2)cc1 [V187700, (2R,3S,4S)-4-hydroxy-2-[(4-methoxyphenyl)methyl]pyrrolidin-3-yl N-[2-(1,2-oxazol-3-yl)ethyl]carbamate; trifluoroacetic acid] |  |  |  | < 10 | < 10 | < 10 | < 10 | < 10 | 

More lines, main results first:

Row | IC50 (CCND1; IVTT assay) [µM] | IC50 (MCL-1; [2]) [µM] | IC50 (CCNTB1) [µM] | IC50 (MYC; sfGFP/mCherry ratio) [µM] | IC50 (CCND1; 2 hrs at 30° C.) [µM] | IC50 (MCL-1; 2 hrs at 30° C.) [µM] | IC50 (ALK) [µM] | IC50 (KRAS G12D) [µM] | Compound | IC50 (MYC; [1]) [µM]
13 | < 10 | < 10 | < 10 |  |  |  |  |  | O=C(NCC(F)F)O[C@@H]1[C@@H](O)CN[C@@H]1Cc1ccc(-c2cnco2)cc1 [V192264, (2R,3S,4S)-4-hydroxy-2-(4-(oxazol-5-yl)benzyl)pyrrolidin-3-yl (2,2-difluoroethyl)carbamate] | < 10
14 | > 30 | > 30 | 10 to 20 |  |  |  |  |  | O=C(NCc1cccc(F)c1)O[C@@H]1[C@@H](O)CN[C@@H]1Cc1ccc(-c2nnc(C(F)(F)F)s2)cc1 [V192102, (2R,3S,4S)-4-hydroxy-2-({4-[5-(trifluoromethyl)-1,3,4-thiadiazol-2-yl]phenyl}methyl)pyrrolidin-3-yl N-[(3-fluorophenyl)methyl]carbamate] | 10 to 20
15 | 10 to 20 | < 10 | < 10 |  |  |  |  |  | O=C(NCC[C@@H]1CCCN1)O[C@@H]1[C@@H](O)CN[C@@H]1Cc1ccc(-c2ccc3c(c2)CC(F)(F)C3)cc1 [V191961, (2R,3S,4S)-2-{[4-(2,2-difluoro-1,3-dihydroinden-5-yl)phenyl]methyl}-4-hydroxypyrrolidin-3-yl N-{2-[(2S)-pyrrolidin-2-yl]ethyl}carbamate] | 10 to 20
16 |  |  | < 10 |  |  |  |  |  | O=C(NCC[C@H]1CCCN1)O[C@@H]1[C@@H](O)CN[C@@H]1Cc1ccc(-c2ccc(F)c(F)c2)cc1 [V192037, (2R,3S,4S)-2-({3′,4′-difluoro-[1,1′-biphenyl]-4-yl}methyl)-4-hydroxypyrrolidin-3-yl N-{2-[(2R)-pyrrolidin-2-yl]ethyl}carbamate] | 10 to 20
17 | < 10 | < 10 | < 10 |  |  |  |  |  | O=C(NCCC1CCNCC1)O[C@@H]1[C@@H](O)CN[C@@H]1Cc1ccc(-c2ccc(F)c(F)c2)cc1 [V192051, (2R,3S,4S)-2-({3′,4′-difluoro-[1,1′-biphenyl]-4-yl}methyl)-4-hydroxypyrrolidin-3-yl N-[2-(piperidin-4-yl)ethyl]carbamate] | < 10
18 | < 10 |  | < 10 |  |  |  |  |  | COc1ccc(C[C@H]2NC[C@H](O)[C@H]2OC(=O)NCCC2(N)CC2)cc1 [V191989, (2R,3S,4S)-4-hydroxy-2-(4-methoxybenzyl)pyrrolidin-3-yl (2-(1-aminocyclopropyl)ethyl)carbamate] | < 10
19 | > 30 |  | > 30 |  |  |  |  |  | O=C(NCC[C@H]1CCCN1)O[C@@H]1[C@@H](O)CN[C@@H]1Cc1ccc(-c2ccc(C(F)(F)F)cc2)cc1 [V192038, (2R,3S,4S)-4-hydroxy-2-{[4′-(trifluoromethyl)-[1,1′-biphenyl]-4-yl]methyl}-pyrrolidin-3-yl N-{2-[(2R)-pyrrolidin-2-yl]ethyl}carbamate; Trifluoroacetic Acid] | > 30
20 | > 30 |  | > 30 |  |  |  |  |  | O=C(NCC[C@H]1CCCN1)O[C@@H]1[C@@H](O)CN[C@@H]1Cc1ccc(-c2ccc(S(F)(F)(F)(F)F)cc2)cc1 [V192039, (2R,3S,4S)-4-hydroxy-2-{[4′-(pentafluoro-lambda6-sulfanyl)-[1,1′-biphenyl]-4-yl]methyl}pyrrolidin-3-yl N-{2-[(2R)-pyrrolidin-2-yl]ethyl}carbamate] | > 30
21 | 10 to 20 |  | < 10 |  |  |  |  |  | O=C(NCC[C@H]1CCCN1)O[C@@H]1[C@@H](O)CN[C@@H]1Cc1ccc(-c2ccccc2)cc1 [V192036, (2R,3S,4S)-2-{[1,1′-biphenyl]-4-ylmethyl}-4-hydroxypyrrolidin-3-yl N-{2-[(2R)-pyrrolidin-2-yl]ethyl}carbamate] | < 10

Source: patent US20250129021A1, “SMALL MOLECULE PROTEIN SYNTHESIS MODULATORS” (Interdict Bio, Inc., priority 2023, published 2025)
